Source: patent publication US11247976B2, “Synthetic ligands that modulate the activity of the RhlR quorum sensing receptor” (Wisconsin Alumni Research Foundation, priority 2016, dated 2022)
“Also recorded” adds a separate entry of the source.

The compounds below were run against T1, RhlR (Pseudomonas aeruginosa, UniProt P54292) (assay: P. aeruginosa RhlR reporter agonism assay (PAO-JP2/prhlI-LVAgfp)). Conditions: not given.
T1 construct: expressed in transfected cells; host or cells: E. coli JLD271 (ΔsdiA) with pJN105R2 (arabinose-induced) and pSC11-rhlI*
Format: cell-based

T1 sequence (P54292 whole entry): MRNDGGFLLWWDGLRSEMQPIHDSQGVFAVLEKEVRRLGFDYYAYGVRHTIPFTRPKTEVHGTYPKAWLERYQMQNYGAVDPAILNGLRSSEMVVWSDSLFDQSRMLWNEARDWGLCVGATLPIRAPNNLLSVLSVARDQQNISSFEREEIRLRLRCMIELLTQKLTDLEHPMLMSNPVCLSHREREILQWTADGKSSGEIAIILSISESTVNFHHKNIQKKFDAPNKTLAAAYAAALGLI

Q: `CCCC(=O)N[C@H]1CCOC1=O` [BHL, N-butanoyl L-homoserine lactone, reference compound] was tested. Which EC50 did it give?
A: The EC50 was 8.08 µM.

Same assay, conditions: read-out: Maximum Activation (%)

Q: How did the Emax turn out when `CCCC(=O)N[C@H]1CCOC1=O` [BHL, N-butanoyl L-homoserine lactone, reference compound] was run?
A: The Emax was 100%.

What follows are compounds tested against T1, RhlR (assay: E. coli RhlR reporter agonism assay (JLD271/pJN105R2/pSC11-rhlI*)). Conditions: not given.
Format: cell-based, P. aeruginosa
Method: (§1) All media and reagents for bacterial culture were purchased from commercial sources. Bacteria were cultured in Luria-Bertani broth (LB) at 37° C. with shaking at 200 rpm unless otherwise noted. The bacterial reporter strains used for this study were (i) the heterologous E. coli strain JLD271 (ΔsdiA) harboring the RhlR expression plasmid pJN105R2 and the rhlI-lacZ transcriptional fusion reporter pSC11-rhlI*, (ii) the heterologous E. coli strain JLD271 (ΔsdiA) harboring the LasR expression plasmid pJN105L and the […] transcriptional fusion reporter pSC11, and (iii) the P. aeruginosa strain PAO-JP2 (ΔlasrhlI) harboring the rhlI-gfp transcriptional fusion reporter prhlI-LVAgfp. Reporter strains JLD271/pJN105R2/pSC11-rhlI* and JLD271/pJN105L/pSC11 were grown in LB containing 100 μg/mL ampicillin and 10 μg/mL gentamicin. Freezer stocks of bacterial strains were maintained at −80° C. in 1:1 LB:50% glycerol.
(§2) To evaluate the modulatory activities of library compounds on RhlR and LasR using E. coli reporters, the strains JLD271/pJN105R2/pSC11-rhlI* and JLD271/pJN105L/pSC11 were used, respectively, as previously described.^38, 51 The following modifications were used in the RhlR agonism reporter assay, non-native compounds (10 μM or 1 mM) were compared to 1 mM BHL as the positive control. Briefly, a subculture was prepared by diluting an overnight culture 1:10 with fresh media containing 100 μg/mL ampicillin and 10 μg/mL gentamicin, and was incubated until it had grown to OD600=0.45. In all assays, L-arabinose was added to a final concentration of 4 mg/mL to induce RhlR expression. For RhlR agonism assays, activities of test compounds were measured relative to 1 mM BHL (the concentration required to induce a maximal level of RhlR activity). For RhlR antagonism assays, test compounds were competed against a concentration of BHL approximately equal to its EC50 value (10 μM). Activity was measured relative to 10 μM BHL. Inhibition was calculated by subtracting 100% from the relative activity value. Thus, 0% inhibition mimics represents no competitive displacement of 10 μM BHL by a test compound. In all assays, modifications were made to the standard Miller assay protocol to accommodate the use of the chlorophenol red-β-D-galactopyranoside (CPRG) β-galactosidase substrate. After cell lysis, 150 μL of the aqueous layer was transferred from each well of a solvent-resistant 96-well microtiter plate to the wells of a new clear, flat-bottom 96-well microtiter plate. CPRG (4 mg/mL in phosphate-buffered saline) was added to each well in 25 μL volumes. Plates were incubated at 30° C. until the positive control wells developed a red color (approximately 30 min). The amount of processed CPRG substrate was assessed by measuring the absorbance of each well at 570 nm. Enzymatic activity was calculated using the following equation: adjusted Miller units=1000·Abs570/(OD600·t·V),
(§3) where t is the incubation time of substrate with lysate and V is the volume of culture lysed.
Because LuxR-type receptors are often unstable in solution, preventing the use of in vitro assays to directly assess small molecule agonism and antagonism, reporter gene assays represent a standard method for screening small-molecule libraries for LuxR-type receptor modulation. Previously reported strains for this purpose were used in the current study.^38 Synthetic N-butanoyl L-homoserine lactone (BHL), the native ligand of RhlR, was used as the positive control for receptor activation. Commonly, agonists are measured relative to maximum possible receptor activation within a particular assay medium;^40 because the dose-response curve of BHL is distinctly shallow in these RhlR reporters, a high concentration of BHL is required to maximally activate RhlR. In this study, activation of compounds was measured relative to that elicited by 1 mM BHL (the concentration of BHL used causes no aberrant growth effects in the reporter strain). […]

Q: For `CCCC(=O)N[C@H]1CCOC1=O` [BHL, N-butanoyl L-homoserine lactone, reference compound], which EC50 is on record?
A: The EC50 was 8.95 µM.

Q: `C/C=C\CC(=O)N[C@H]1CCOC1=O` [Compound J5] was tested. Which EC50 did it give?
A: The EC50 was 6.93 µM.

Same assay, conditions: E. coli reporter

Q: How did the “Hill slope of agonism dose-response” value turn out when `CCCC(=O)N[C@H]1CCOC1=O` [BHL, N-butanoyl L-homoserine lactone, reference compound] was run?
A: The value was 0.7.

Same assay, conditions: compound at 10 μM; RhlR activity relative to 1 mM BHL; E. coli reporter

Q: Which activation at 10 µM does the source give for `CCCC(=O)N[C@H]1CCOC1=O` [BHL, N-butanoyl L-homoserine lactone, reference compound] here?
A: The activation at 10 µM was 51%.

Q: How did the activation at 10 µM turn out when `O=C(COc1ccc(I)cc1)NCC1CCCO1` (centres unmarked) [RN23] was run?
A: The activation at 10 µM was 0%.

Q: For `C/C=C\CC(=O)N[C@H]1CCOC1=O` [Compound J5], which activation at 10 µM is on record?
A: The activation at 10 µM was 52%.

Q: For `CCCC(=O)NCC1CCCN1` (centres unmarked) [RN11], which activation at 10 µM is on record?
A: Its activation at 10 µM is 0%.

Q: How did the activation at 10 µM turn out when `CCCC(=O)NC1CCOC1` (centres unmarked) [RN2] was run?
A: The activation at 10 µM was 0%.

Same assay, conditions: read-out: Maximum Activation (%)

Q: How did the Emax turn out when `CCCC(=O)N[C@H]1CCOC1=O` [BHL, N-butanoyl L-homoserine lactone, reference compound] was run?
A: Its Emax is 100%.

Q: For `C/C=C\CC(=O)N[C@H]1CCOC1=O` [Compound J5], which Emax is on record?
A: Its Emax is 80%.

Same assay, conditions: single-concentration screen at 10 μM, E. coli reporter

Q: `C/C=C\CC(=O)N[C@H]1CCOC1=O` [Compound J5] was tested. Which “RhlR agonist activity in words” value did it give?
A: The value was “activities statistically insignificant from native ligand BHL”.

Each compound was assayed against T2, LasR (Pseudomonas aeruginosa, UniProt P25084) (assay: Selectivity of RhlR agonism over LasR agonism (E. coli LasR reporter JLD271/pJN105L/pSC11)). Conditions: tested concentration 1 mM; RhlR % activity divided by LasR % activity; > = negligible activity in LasR reporter.
T2 construct: expressed in transfected cells; host or cells: E. coli JLD271 (ΔsdiA) with pJN105L and pSC11
Format: cell-based, P. aeruginosa
Method: as §1, §2
LasR assays were processed using the protocol for the substrate ortho-nitrophenyl-β-galactoside (ONPG) as previously described elsewhere.^53; and LasR antagonism assays were performed versus the EC50 for OdDHL (2 nM).
The selectivity of certain compounds for RhlR over LasR was measured using a LasR reporter strain (details above). Table 6 provides a comparison of selectivity of RhlR agonism over LasR agonism for exemplary compounds. Table 7 provides a comparison of selectivity of RhlR antagonism over LasR antagonism for exemplary compounds.

T2 sequence (P25084 whole entry): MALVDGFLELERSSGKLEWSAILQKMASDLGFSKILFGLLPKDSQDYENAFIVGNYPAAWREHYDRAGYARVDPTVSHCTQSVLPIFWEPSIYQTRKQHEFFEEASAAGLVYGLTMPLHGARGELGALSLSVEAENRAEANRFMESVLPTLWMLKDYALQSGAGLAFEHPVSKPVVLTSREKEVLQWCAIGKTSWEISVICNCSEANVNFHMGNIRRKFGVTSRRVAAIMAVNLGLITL

Q: Which “Fold selectivity of RhlR agonists over LasR agonism” value does the source give for `CCCC(=O)N[C@H]1CCOC1=O` [BHL, N-butanoyl L-homoserine lactone, reference compound] here?
A: Its value is 18 fold.

Same assay, conditions: tested concentration 10 μm; RhlR % activity divided by LasR % activity; > = negligible activity in LasR reporter

Q: Which “Fold selectivity of RhlR agonists over LasR agonism” value does the source give for `CCCC(=O)N[C@H]1CCOC1=O` [BHL, N-butanoyl L-homoserine lactone, reference compound] here?
A: Its value is 56 fold.

These compounds were tested against T1, RhlR (assay: E. coli RhlR reporter antagonism assay vs 10 μM BHL (JLD271/pJN105R2/pSC11-rhlI*)). Conditions: not given.
Format: cell-based, P. aeruginosa
Method: as §1
as §2, with “For RhlR antagonism assays, test compounds were competed against a concentration of BHL approximately equal to its EC50 value (10 μM).” left out
as §3
The RhlR-modulatory activity of the J library compounds was assessed in a heterologous reporter strain (E. coli JLD271 harboring plasmids pJN105R2 and pSC11-rhlI*) in order to isolate the RhlR receptor from upstream QS regulation (e.g. regulation by LasR). Thus, the extent to which compounds were directly modulating RhlR could be determined. These assays were performed by incubating compound-treated, mid-log phase E. coli reporter cells in 96-well microtiter plates, followed by Miller assay evaluation of ß-galactosidase activity.
RhlR agonism and antagonism screens of each compound were performed initially at 10 μM.

Q: Which IC50 does the source give for `O=C(COc1ccc(I)cc1)NCC1CCCO1` (centres unmarked) [RN23] here?
A: The IC50 was > 100 µM.

Same assay, conditions: E. coli reporter vs 10 μM BHL

Q: For `O=C(COc1ccc(I)cc1)NCC1CCCO1` (centres unmarked) [RN23], which “RhlR antagonist activity in words” value is on record?
A: Its value is “potent antagonist activity; also recorded: negligible maximum potency difference from its head group parent compound RN10”.

Same assay, conditions: E. coli reporter; relative to activation of 10 μM BHL alone

Q: For `O=C(COc1ccc(I)cc1)NCC1CCCO1` (centres unmarked) [RN23], which “Maximum Inhibition (%)” value is on record?
A: The value was 56%.

Same assay, conditions: read-out: % inhibition (10 μM), compound at 10 μM in the presence of 10 μM BHL; negative = agonism stronger than 10 μM BHL alone

Q: For `O=C(COc1ccc(I)cc1)NCC1CCCO1` (centres unmarked) [RN23], which inhibition at 10 µM is on record?
A: The inhibition at 10 µM was 6%.

Q: Which inhibition at 10 µM does the source give for `C/C=C\CC(=O)N[C@H]1CCOC1=O` [Compound J5] here?
A: The inhibition at 10 µM was -12%.

Q: Which inhibition at 10 µM does the source give for `CCCC(=O)NCC1CCCN1` (centres unmarked) [RN11] here?
A: Its inhibition at 10 µM is -3%.

Q: `CCCC(=O)NC1CCOC1` (centres unmarked) [RN2] was tested. Which inhibition at 10 µM did it give?
A: Its inhibition at 10 µM is -5%.

Same assay, conditions: read-out: % inhibition (1 mM), compound at 1 mM in the presence of 10 μM BHL; negative = agonism stronger than 10 μM BHL alone

Q: With `O=C(COc1ccc(I)cc1)NCC1CCCO1` (centres unmarked) [RN23] as the compound, how does the inhibition at 1000 µM read?
A: The inhibition at 1000 µM was > 50%.

Q: How did the inhibition at 1000 µM turn out when `C/C=C\CC(=O)N[C@H]1CCOC1=O` [Compound J5] was run?
A: The inhibition at 1000 µM was -74%.

Q: For `CCCC(=O)NCC1CCCN1` (centres unmarked) [RN11], which inhibition at 1000 µM is on record?
A: Its inhibition at 1000 µM is -1%.

Q: `CCCC(=O)NC1CCOC1` (centres unmarked) [RN2] was tested. Which inhibition at 1000 µM did it give?
A: Its inhibition at 1000 µM is 20%.
